Data taken from PubChem BioAssay AID1963964 (Molecular Pharmacology Branch, DTP, NCI, 2024).

System: 997726-040-R-J2-PDC tumor spheroids, viability
Test: Anticancer human tumor 997726-040-R-J2-PDC patient-derived squamous cell lung carcinoma cell line growth inhibition [PI3K]
Details: spheroids with HUVEC and MSC; for IC50: curve of first compound; for viability, T/C: stronger effect = lower value; active = viability on the fitted dose curve at most 10% of control; inactive = the rest
Summary of the method: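 Tumor cells were combined with HUVEC and MSCs into spheroids, then dosed with PI3K-inhibitor combinations over half-log ranges capped near clinical Cmax or 10 microM.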

[1] = second compound 0.0316 µM, first compound 0.0316 µM
[2] = second compound 0.0316 µM, first compound 0.1 µM
[3] = second compound 0.0316 µM, first compound 0.316 µM
[4] = second compound 0.0316 µM, first compound 1 µM
[5] = second compound 0.0316 µM, first compound 3.16 µM
[6] = second compound 0.0316 µM, first compound 10 µM
[7] = second compound 0.1 µM, first compound 0.0316 µM
[8] = second compound 0.1 µM, first compound 0.1 µM
[9] = second compound 0.1 µM, first compound 0.316 µM
[10] = second compound 0.1 µM, first compound 1 µM
[11] = second compound 0.1 µM, first compound 3.16 µM
[12] = second compound 0.1 µM, first compound 10 µM
[13] = second compound 0.316 µM, first compound 0.0316 µM
[14] = second compound 0.316 µM, first compound 0.1 µM
[15] = second compound 0.316 µM, first compound 0.316 µM
[16] = second compound 0.316 µM, first compound 1 µM
[17] = second compound 0.316 µM, first compound 3.16 µM
[18] = second compound 0.316 µM, first compound 10 µM
[19] = second compound 1 µM, first compound 0.0316 µM
[20] = second compound 1 µM, first compound 0.1 µM
[21] = second compound 1 µM, first compound 0.316 µM
[22] = second compound 1 µM, first compound 1 µM
[23] = second compound 1 µM, first compound 3.16 µM
[24] = second compound 1 µM, first compound 10 µM
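Also: spheroids exposed to compounds for seven days before readout.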

CC1(C)CCC(Nc2ncc(C(F)(F)F)c(-c3c[nH]c4c(P(C)(C)=O)c(C#N)ccc34)n2)CN1 (centres undefined) + CC(Nc1ncnc2nc[nH]c12)c1cc2cccc(Cl)c2c(=O)n1-c1ccccc1
31.6 nM: IC50 (second compound 1 µM)
inactive: viability, T/C [1] 48.9% | viability, T/C [2] 45.7% | viability, T/C [3] 50% | viability, T/C [4] 59.5% | viability, T/C [5] 65.9% | viability, T/C [6] 29.6% | viability, T/C [7] 53.8% | viability, T/C [8] 51.6% | viability, T/C [9] 49.3% | viability, T/C [10] 48.5% | viability, T/C [11] 55.5% | viability, T/C [12] 33% | viability, T/C [13] 52.3% | viability, T/C [14] 47.6% | viability, T/C [15] 45.3% | viability, T/C [16] 53.3% | viability, T/C [17] 56% | viability, T/C [18] 26.5% | viability, T/C [19] 49.2% | viability, T/C [20] 46.2% | viability, T/C [21] 45.2% | viability, T/C [22] 44.7% | viability, T/C [23] 52.2% | viability, T/C [24] 27.3% | viability, T/C (second compound 3.16 µM, first compound 0.0316 µM) 42.1% | viability, T/C (second compound 3.16 µM, first compound 0.1 µM) 40.7% | viability, T/C (second compound 3.16 µM, first compound 0.316 µM) 36% | viability, T/C (second compound 3.16 µM, first compound 1 µM) 39.3% | viability, T/C (second compound 3.16 µM, first compound 3.16 µM) 53.8% | viability, T/C (second compound 3.16 µM, first compound 10 µM) 21.7% | viability, T/C (second compound 10 µM, first compound 0.0316 µM) 32% | viability, T/C (second compound 10 µM, first compound 0.1 µM) 29.2% | viability, T/C (second compound 10 µM, first compound 0.316 µM) 31.5% | viability, T/C (second compound 10 µM, first compound 1 µM) 37.7% | viability, T/C (second compound 10 µM, first compound 3.16 µM) 39.8% | viability, T/C (second compound 10 µM, first compound 10 µM) 14.1%
3300 nM: IC50 (second compound 0.316 µM)
< 31.6 nM: IC50 (second compound 3.16 µM) | IC50 (second compound 10 µM)
3510 nM: IC50 (second compound 0.1 µM)
496 nM: IC50 (second compound 0.0316 µM)

C#Cc1c(F)ccc2cc(O)cc(-c3ncc4c(N5CC6CCC(C5)N6)nc(OCC56CCCN5CC(F)C6)nc4c3F)c12 (centres undefined) + CC(Nc1ccc2c(c1)OCCn1cc(N3C(=O)OCC3C(F)F)nc1-2)C(N)=O
5350 nM: IC50 (second compound 0.0316 µM)
< 31.6 nM: IC50 (second compound 0.1 µM) | IC50 (second compound 0.316 µM) | IC50 (second compound 1 µM)
> 10000 nM: IC50 (second compound 0.00316 µM) | IC50 (second compound 0.01 µM)
inactive: viability, T/C (second compound 0.00316 µM, first compound 0.0316 µM) 89.2% | viability, T/C (second compound 0.00316 µM, first compound 0.1 µM) 97.8% | viability, T/C (second compound 0.00316 µM, first compound 0.316 µM) 81.8% | viability, T/C (second compound 0.00316 µM, first compound 1 µM) 83.5% | viability, T/C (second compound 0.00316 µM, first compound 3.16 µM) 75.3% | viability, T/C (second compound 0.00316 µM, first compound 10 µM) 77.4% | viability, T/C (second compound 0.01 µM, first compound 0.0316 µM) 79% | viability, T/C (second compound 0.01 µM, first compound 0.1 µM) 83% | viability, T/C (second compound 0.01 µM, first compound 0.316 µM) 79.2% | viability, T/C (second compound 0.01 µM, first compound 1 µM) 75% | viability, T/C (second compound 0.01 µM, first compound 3.16 µM) 68.5% | viability, T/C (second compound 0.01 µM, first compound 10 µM) 55% | viability, T/C [1] 62.4% | viability, T/C [2] 65% | viability, T/C [3] 55.3% | viability, T/C [4] 60% | viability, T/C [5] 55.6% | viability, T/C [6] 44.2% | viability, T/C [7] 45.8% | viability, T/C [8] 43.4% | viability, T/C [9] 45.5% | viability, T/C [10] 44.9% | viability, T/C [11] 38.5% | viability, T/C [12] 52.9% | viability, T/C [13] 35.8% | viability, T/C [14] 36.1% | viability, T/C [15] 31.9% | viability, T/C [16] 31.5% | viability, T/C [17] 25.6% | viability, T/C [18] 24.8% | viability, T/C [19] 26.8% | viability, T/C [20] 30.1% | viability, T/C [21] 27.2% | viability, T/C [22] 26.6% | viability, T/C [23] 26.1% | viability, T/C [24] 25.1%
